Measured values published in patent US7479561B2, “4-(2,4-dichloro-5-methoxyphenyl)amino-6-methoxy-7-{[5-substituted-amino)methyl]-3-furyl}-3-quinolinecarbonitriles as kinase inhibitors” (Wyeth, priority 2004, dated 2009).
Several values for one entry are separate records, joined by “and”; a condition that tells them apart may be missing. Equal entries are not always repeated. Where two headings read alike, the source gives them in different places.

Experiments:
HT29 cells = assay: HT29 Xenograft Assay; format: in vivo; conditions: 100 mg/kg oral gavage once a day for 14 days; at day 14; female nude mice
Description: All animal studies were conducted under an approved Institutional Animal Care and Use Committee protocol. HT29 cells were suspended to 50 million cells/ml and 0.2 ml of the cell suspension was injected into 6-7 weeks old female nude mice (Charles River, Wilmington, Mass.). […] At day 14 the T/C (growth of tumors in treated animals/growth of tumors in control animals) was 0.53.

Wild type c-Abl = target: T1, Wild type c-Abl (Homo sapiens, UniProt P00519); assay: Abl Kinase Assay (LANCE FRET); format: biochemical; conditions: 100 μM ATP; read-out: c-Abl enzyme IC50
T1 construct: purchased Panvera P3049
Description: Wild type c-Abl was purchased from Panvera (P3049). Biotinylated peptide for the Abl kinase assay was obtained from Synpep (Biotin-NH-[…]-COOH). Homogeneous fluorescence resonance energy transfer kinase assays were performed using the europium/APC detection format (LANCE, Perkin Elmer). Abl enzyme (2.5 ng c-Abl) was mixed with biotinylated peptide (final concentration 2 μM), 50 mM Hepes (pH 7.5), 10 mM MgCl2, 20 ug/ml BSA, and 0.001% Brij-35 (Sigma). Compound was added with a final DMSO concentration of 1%, and incubated for ten minutes at 27° C. The kinase reaction was initiated by addition of ATP to a final concentration of 100 μM, and incubated for 30 minutes at 27° C. The reaction was stopped with EDTA at a final concentration of 30 mM EDTA/25 mM Hepes (pH 7.5)/10 μg/ml BSA. The mixture was combined with Eu-labeled phosphotyrosine antibody PT66 (Perkin Elmer, AD0068) and Streptavidin Surelight-APC (Perkin Elmer, CR130-100) in 50 mM Hepes (pH 7.5)/20 μg/ml BSA, and incubated for 30 minutes according to manufacturer's specifications. The reaction was monitored on a Wallac Victor with excitation at 340 nm and emission at 665 nm. Data was analyzed with the LSW data analysis plug-in for Excel (Microsoft).

K562 Cells = assay: K562 cell assay; format: cell-based; conditions: Homo sapiens
Description: (§1) The cell assays were performed as noted in Cancer Research 63, 375-381 (2003).

[1] = target: Rat2 fibroblasts stably transformed with v-Src/Hu c-Src fusion gene (Homo sapiens, UniProt P12931, cells depend on it, form not given); assay: Anchorage Independent Src-transformed Fibroblast Proliferation Assay; format: cell-based, rat
Excerpt: Rat2 fibroblasts stably transformed with a plasmid containing a CMV promotor controlled v-Src/Hu c-Src fusion gene in which the catalytic domain of human c-Src was inserted in place of the v-Src catalytic domain in the v-Src gene are used for the measurement of src dependent suspension growth.

KU812 Cells = assay: KU812 cell assay; format: cell-based; conditions: Homo sapiens
Description: as §1

[2] = target: T2, Recombinant human Src enzyme (Homo sapiens, UniProt P12931); assay: Src Kinase Assay (LANCE FRET); format: biochemical
T2 construct: purchased PanVera P3044
Description: Recombinant human Src enzyme was obtained from PanVera (P3044). […] Homogeneous fluorescence resonance energy transfer kinase assays were performed using the europium/APC detection format (LANCE, Perkin Elmer). Src enzyme (10 ng) was mixed with biotinylated peptide (final concentration 2 μM), 50 mM Hepes (pH 7.5), 10 mM MgCl2, 20 ug/ml BSA, 0.001% Brij-35 (Sigma), 100 μM ATP, 1% DMSO. The kinase reaction was incubated for 70 min at 37° C. The reaction was stopped with EDTA at a final concentration of 30 mM EDTA/25 mM Hepes (pH 7.5)/10 μg/ml BSA. The mixture was combined with Eu-labeled anti-phosphotyrosine antibody PT66 (Perkin Elmer, AD0068) and Streptavidin Surelight-APC (Perkin Elmer, CR130-100) in 50 mM Hepes (pH 7.5)/20 μg/ml BSA, and incubated for 30 min according to manufacturer's specifications. […] Multiple entries for a given compound indicate that it was tested multiple times.

[3] = target: T3, Rat2 fibroblasts stably transformed with v-Src/Hu Lck fusion gene (Homo sapiens, UniProt P06239, cells depend on it, form not given); assay: Anchorage Independent Lck-transformed Fibroblast Proliferation Assay; format: cell-based, rat; conditions: suspension growth, MTS on Day 5; multiple entries = tested multiple times; read-out: Lck cells IC50
T3 construct: fused on or other part: v-Src of Rous sarcoma virus outside the catalytic domain (N-terminal unique/SH3/SH2 region and C-terminal tail); candidates are Schmidt-Ruppin A (P00524) and Prague C (P00526)
Excerpt: Rat2 fibroblasts stably transformed with a plasmid containing a CMV promotor controlled v-Src/Hu Lck fusion gene in which the catalytic domain of human Lck was inserted in place of the v-Src catalytic domain in the v-Src gene are used for the measurement of src dependent suspension growth.

[4] = single value, read-out: Src Cell IC50
[5] = suspension growth, MTS on Day 5, multiple entries = tested multiple times, read-out: Src cells IC50
[6] = 100 μM ATP, multiple entries = tested multiple times, read-out: Src enzyme IC50
[7] = single value, read-out: Src Enzyme IC50

T1 sequence (P00519 whole entry): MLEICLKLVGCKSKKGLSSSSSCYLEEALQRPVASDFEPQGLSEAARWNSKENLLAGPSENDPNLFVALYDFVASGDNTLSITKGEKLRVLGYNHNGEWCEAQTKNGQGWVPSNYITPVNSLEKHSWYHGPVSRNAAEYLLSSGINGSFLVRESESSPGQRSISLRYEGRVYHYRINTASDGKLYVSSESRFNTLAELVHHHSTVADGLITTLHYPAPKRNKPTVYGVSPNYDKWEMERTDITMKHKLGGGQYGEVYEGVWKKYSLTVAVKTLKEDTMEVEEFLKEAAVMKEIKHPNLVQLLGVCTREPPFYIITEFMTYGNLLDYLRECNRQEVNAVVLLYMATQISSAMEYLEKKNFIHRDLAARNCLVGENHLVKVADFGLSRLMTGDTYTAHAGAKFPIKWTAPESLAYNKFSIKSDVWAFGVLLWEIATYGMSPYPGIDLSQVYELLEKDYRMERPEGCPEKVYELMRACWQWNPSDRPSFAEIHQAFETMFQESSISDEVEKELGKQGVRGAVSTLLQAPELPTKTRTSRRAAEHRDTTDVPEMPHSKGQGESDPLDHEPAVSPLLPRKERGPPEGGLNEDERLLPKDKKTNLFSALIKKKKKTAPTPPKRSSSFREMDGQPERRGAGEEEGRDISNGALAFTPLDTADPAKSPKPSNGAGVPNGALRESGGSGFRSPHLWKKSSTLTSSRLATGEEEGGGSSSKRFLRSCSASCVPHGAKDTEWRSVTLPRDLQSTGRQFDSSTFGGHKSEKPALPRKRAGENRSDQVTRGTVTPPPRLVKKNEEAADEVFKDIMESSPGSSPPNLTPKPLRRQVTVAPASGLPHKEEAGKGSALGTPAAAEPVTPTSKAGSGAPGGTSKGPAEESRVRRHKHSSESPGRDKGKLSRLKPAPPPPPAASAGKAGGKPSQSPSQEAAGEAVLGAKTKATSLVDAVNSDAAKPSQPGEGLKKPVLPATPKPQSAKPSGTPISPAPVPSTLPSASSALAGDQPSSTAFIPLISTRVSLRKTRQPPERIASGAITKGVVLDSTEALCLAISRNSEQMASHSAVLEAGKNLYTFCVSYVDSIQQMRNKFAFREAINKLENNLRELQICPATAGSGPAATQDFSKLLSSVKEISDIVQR
T2 sequence (P12931 whole entry): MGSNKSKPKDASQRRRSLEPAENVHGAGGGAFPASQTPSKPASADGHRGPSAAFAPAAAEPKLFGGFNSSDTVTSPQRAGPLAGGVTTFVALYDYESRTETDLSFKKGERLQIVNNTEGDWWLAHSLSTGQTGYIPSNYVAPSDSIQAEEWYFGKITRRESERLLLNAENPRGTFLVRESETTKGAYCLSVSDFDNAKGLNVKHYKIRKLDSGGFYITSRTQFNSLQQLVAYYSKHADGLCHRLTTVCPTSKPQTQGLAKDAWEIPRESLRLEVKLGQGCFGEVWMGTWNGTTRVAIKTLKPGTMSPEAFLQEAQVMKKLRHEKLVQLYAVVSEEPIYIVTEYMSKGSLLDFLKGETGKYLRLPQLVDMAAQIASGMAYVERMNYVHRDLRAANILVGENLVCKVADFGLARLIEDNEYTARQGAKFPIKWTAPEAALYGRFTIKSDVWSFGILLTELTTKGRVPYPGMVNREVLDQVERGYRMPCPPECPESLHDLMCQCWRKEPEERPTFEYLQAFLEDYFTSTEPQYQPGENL
Rat2 fibroblasts stably transformed with v-Src/Hu c-Src fusion gene, sequence (P12931 whole entry, stated change not applied, the tested form may be a part): as the sequence (P12931 whole entry) above
T3 sequence (P06239 whole entry, change not shown, the tested form may be a part): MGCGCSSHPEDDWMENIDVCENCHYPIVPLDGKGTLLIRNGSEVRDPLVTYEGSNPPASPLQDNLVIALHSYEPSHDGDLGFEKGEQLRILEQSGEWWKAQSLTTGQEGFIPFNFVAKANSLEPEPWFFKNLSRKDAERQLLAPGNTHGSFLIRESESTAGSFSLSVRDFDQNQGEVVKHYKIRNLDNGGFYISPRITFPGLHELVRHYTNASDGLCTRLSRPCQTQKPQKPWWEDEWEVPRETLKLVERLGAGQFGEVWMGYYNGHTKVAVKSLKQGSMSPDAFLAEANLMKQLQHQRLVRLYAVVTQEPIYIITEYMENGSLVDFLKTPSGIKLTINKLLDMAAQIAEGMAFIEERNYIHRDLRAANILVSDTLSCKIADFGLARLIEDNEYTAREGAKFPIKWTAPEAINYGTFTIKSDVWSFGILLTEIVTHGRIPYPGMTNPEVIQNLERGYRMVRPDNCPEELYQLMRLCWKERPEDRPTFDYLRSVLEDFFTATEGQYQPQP

melting point [°C] | IC50 [2, 6] | GI50 [3] | SMILES | further results
179 to 181 | 1 nM and 0.6 nM and 0.7 nM |  | COc1cc(Nc2c(C#N)cnc3cc(-c4coc(CN5CCN(C)CC5)c4)c(OC)cc23)c(Cl)cc1Cl [Example 1] | T/C (growth of tumors in treated animals/growth of tumors in control animals) (HT29 cells): 0.53; IC50 (Wild type c-Abl): 0.4 nM and 0.27 nM and 0.25 nM; IC50 (K562 Cells): 5.6 nM; GI50 [1, 4]: 15 nM; GI50 [1, 5]: 16 nM; IC50 (KU812 Cells): 6 nM; IC50 [2, 7]: 0.8 nM
133 to 138 |  | 11 nM | COc1cc(Nc2c(C#N)cnc3cc(-c4coc(CN(C)C)c4)c(OC)cc23)c(Cl)cc1Cl [Example 2, 4-[(2,4-Dichloro-5-methoxyphenyl)amino]-6-methoxy-7-{5-[(dimethylamino)methyl]-3-furyl}-3-quinolinecarbonitrile] | 
164 to 166 |  |  | COc1cc(Nc2c(C#N)cnc3cc(-c4coc(CN5CCOCC5)c4)c(OC)cc23)c(Cl)cc1Cl [Example 3, 4-[(2,4-Dichloro-5-methoxyphenyl)amino]-6-methoxy-7-[5-(morpholin-4-ylmethyl)-3-furyl]-3-quinolinecarbonitrile] | 
201 to 203 |  | 353 nM and 447 nM | COc1cc(Nc2c(C#N)cnc3cc(-c4coc(CN5CCN(c6ccccc6)CC5)c4)c(OC)cc23)c(Cl)cc1Cl [Example 4, 4-[(2,4-Dichloro-5-methoxyphenyl)amino]-6-methoxy-7-{5-[(4-phenylpiperazin-1-yl)methyl]-3-furyl}-3-quinolinecarbonitrile] | 
223 to 225 | 3.5 nM and 3.1 nM | 246 nM and 203 nM and 239 nM | COc1ccc(N2CCN(Cc3cc(-c4cc5ncc(C#N)c(Nc6cc(OC)c(Cl)cc6Cl)c5cc4OC)co3)CC2)c(OC)c1 [Example 5, 4-[(2,4-Dichloro-5-methoxyphenyl)amino]-6-methoxy-7-(5-{[4-(2,4-dimethoxyphenyl)piperazin-1-yl]methyl}-3-furyl)-3-quinolinecarbonitrile] | GI50 [1, 5]: 19 nM and 17 nM
 | 2 nM |  | CCN(CC)CCCN1CCN(Cc2cc(-c3cc4ncc(C#N)c(Nc5cc(OC)c(Cl)cc5Cl)c4cc3OC)co2)CC1 [Example 33, 4-[(2,4-dichloro-5-methoxyphenyl)amino]-7-[5-({4-[3-(diethylamino)propyl]piperazin-1-yl}methyl)-3-furyl]-6-methoxyquinoline-3-carbonitrile] | 
 | 2.5 nM and 3 nM |  | COc1cc(Nc2c(C#N)cnc3cc(-c4coc(CN5CCN(Cc6ccncc6)CC5)c4)c(OC)cc23)c(Cl)cc1Cl [Example 34, 4-[(2,4-dichloro-5-methoxyphenyl)amino]-6-methoxy-7-(5-{[4-(pyridin-4-ylmethyl)piperazin-1-yl]methyl}-3-furyl)quinoline-3-carbonitrile] | 
 | 3.2 nM and 5.6 nM |  | COc1cc(Nc2c(C#N)cnc3cc(-c4coc(CN5CCN(c6c(C)cccc6C)CC5)c4)c(OC)cc23)c(Cl)cc1Cl [Example 35, 4-[(2,4-dichloro-5-methoxyphenyl)amino]-7-(5-{[4-(2,6-dimethylphenyl)piperazin-1-yl]methyl}-3-furyl)-6-methoxyquinoline-3-carbonitrile] | 
 |  |  | c1ccsc1 [thiophene, reference compound] | GI50 [1, 4]: 94 nM; IC50 [2, 7]: 3.7 nM
